molecular target: Kv1.3 potassium channel (Homo sapiens, UniProt P22001); test: Whole-cell patch-clamp assay for inhibitory activity against Kv1.3 (peak current); assay type: cell-based; conditions: HEK293 cells stably expressing Kv1.3, patch-clamp
Source text: The voltage stimulation protocol for recording whole-cell Kv1.X potassium currents via patch-clamp was as follows. After formation of a whole-cell seal, the cell membrane voltage was clamped at −80 mV, and then stepped to +40 mV for 500 ms. […] The test data were acquired by EPC-10 amplifier (HEKA) and stored in the PatchMaster (HEKA) software. Recording electrodes were drawn from capillary glass tubes using a microelectrode puller. Under an inverted microscope, the recording electrode was brought into contact with the cell surface by manipulating a microelectrode manipulator. Negative-pressure suction was applied to form a GΩ seal. After formation of the […], a rapid capacitance compensation was given. The application of negative pressure was continued to rupture the cell membrane, forming a whole-cell recording mode. Then, a slow capacitance compensation was given, and the membrane capacitance and series resistance were recorded. No current leakage compensation was provided. Once the whole-cell recorded Kv1.X current stabilized, drug administration was started. Each drug concentration was allowed to act for 5 min (or until the current reached a steady state) before the next concentration was tested. Multiple concentrations were tested for each test compound. The cover glass plated with the cells was placed in a recording bath of the inverted microscope. The test compound and the compound-free extracellular fluid were allowed to sequentially flow through the recording bath from low concentrations to high concentrations using a gravity perfusion method, thus acting on the cells, and liquid exchange was performed using a vacuum pump during recording. For each cell, the current detected in the compound-free extracellular liquid was used as its own control group. The test was independently repeated three times using at least three cells per concentration. All electrophysiological experiments were performed at room temperature. […] First, the peak current after the action of each drug concentration and the peak current of the blank control were standardized and then the inhibition rate corresponding to each drug concentration was calculated Subsequently, the mean, standard deviation (SD), and standard error (SE) were calculated for the inhibition rate corresponding to each concentration. Using the above equation, the IC50 value for each compound was calculated, and the dose-dependent effect was subjected to non-linear fitting, where IC50 is the half maximal inhibitory concentration. The IC50 calculation and the curve fitting were performed using the GraphPad Prism software.

Chain of Kv1.3 potassium channel (P22001 whole entry): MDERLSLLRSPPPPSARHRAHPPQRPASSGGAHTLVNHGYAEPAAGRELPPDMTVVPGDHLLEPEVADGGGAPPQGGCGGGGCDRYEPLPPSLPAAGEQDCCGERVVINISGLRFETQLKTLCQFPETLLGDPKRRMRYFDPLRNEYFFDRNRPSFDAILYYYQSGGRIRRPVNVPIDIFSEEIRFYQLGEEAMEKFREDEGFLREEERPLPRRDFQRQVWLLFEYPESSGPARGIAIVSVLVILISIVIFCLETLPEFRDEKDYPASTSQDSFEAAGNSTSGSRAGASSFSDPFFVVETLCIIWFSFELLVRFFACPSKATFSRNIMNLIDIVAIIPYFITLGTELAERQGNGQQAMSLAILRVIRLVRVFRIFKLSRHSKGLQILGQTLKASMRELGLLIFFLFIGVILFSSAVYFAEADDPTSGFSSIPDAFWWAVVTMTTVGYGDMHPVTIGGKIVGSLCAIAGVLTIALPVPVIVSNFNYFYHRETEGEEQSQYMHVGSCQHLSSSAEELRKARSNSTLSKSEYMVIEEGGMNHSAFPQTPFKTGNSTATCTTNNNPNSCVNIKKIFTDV

Row | SMILES | IC50 [nM]
1 | CCc1nnc2n1C[C@H](c1c(O)ccc(Cl)c1Cl)C2 [Example 34, (S)-3,4-Dichloro-2-(3-ethyl-6,7-dihydro-5H-pyrrolo[2,1-c][1,2,4]triazol-6-yl)phenol] | 9.75
2 | Oc1ccc(Cl)c(Cl)c1[C@@H]1Cc2nnc(C3CCNCC3)n2C1 [Example 35, (S)-3,4-Dichloro-2-(3-(piperidin-4-yl)-6,7-dihydro-5H-pyrrolo[2,1-c][1,2,4]triazol-6-yl)phenol] | 3.15
3 | CC(C)N1CCC(c2nnc3n2C[C@H](c2c(O)ccc(Cl)c2Cl)C3)CC1 [Example 36, (S)-3,4-Dichloro-2-(3-(1-isopropylpiperidin-4-yl)-6,7-dihydro-5H-pyrrolo[2,1-c][1,2,4]triazol-6-yl)phenol] | 6.8
4 | CC(=O)N1CCC(c2nnc3n2C[C@H](c2c(O)ccc(Cl)c2Cl)C3)CC1 [Example 37, (S)-1-(4-(6-(2,3-Dichloro-6-hydroxyphenyl)-6,7-dihydro-5H-pyrrolo[2,1-c][1,2,4]triazol-3-yl)piperidin-1-yl)ethan-1-one] | 12.7
5 | Cn1cc(-c2nnc3n2C[C@H](c2c(O)ccc(Cl)c2Cl)C3)ccc1=O [Example 38, (S)-5-(6-(2,3-Dichloro-6-hydroxyphenyl)-6,7-dihydro-5H-pyrrolo[2,1-c][1,2,4]triazol-3-yl)-1-methylpyridin-2(1H)-one] | 43.1
6 | Cn1ccc(-c2nnc3n2C[C@H](c2c(O)ccc(Cl)c2Cl)C3)cc1=O [Example 39, (S)-4-(6-(2,3-Dichloro-6-hydroxyphenyl)-6,7-dihydro-5H-pyrrolo[2,1-c][1,2,4]triazol-3-yl)-1-methylpyidin-2(1H)-one] | 52.1
7 | Cn1cc(-c2nnc3n2C[C@H](c2c(O)ccc(Cl)c2Cl)C3)cn1 [Example 40, (S)-3,4-Dichloro-2-(3-(1-methyl-1H-pyrazol-4-yl)-6,7-dihydro-5H-pyrrolo[2,1-c][1,2,4]triazol-6-yl)phenol] | 10.6
8 | Oc1ccc(Cl)c(Cl)c1[C@@H]1Cc2nnc(-c3cccc4[nH]ncc34)n2C1 [Example 41, (S)-2-(3-(1H-Indazol-4-yl)-6,7-dihydro-5H-pyrrolo[2,1-c][1,2,4]triazol-6-yl)-3,4-dichlorophenol] | 23.8
9 | Nc1ccc(-c2nnc3n2C[C@H](c2c(O)ccc(Cl)c2Cl)C3)cn1 [Example 42, (S)-2-(3-(6-Aminopyridin-3-yl)-6,7-dihydro-5H-pyrrolo[2,1-c][1,2,4]triazol-6-yl)-3,4-dichlorophenol] | 13
10 | Nc1cc(-c2nnc3n2C[C@H](c2c(O)ccc(Cl)c2Cl)C3)ccn1 [Example 43, (S)-2-(3-(2-Aminopyridin-4-yl)-6,7-dihydro-5H-pyrrolo[2,1-c][1,2,4]triazol-6-yl)-3,4-dichlorophenol] | 19.7
11 | OCCn1cc(-c2nnc3n2C[C@H](c2c(O)ccc(Cl)c2Cl)C3)cn1 [Example 44, (S)-3,4-Dichloro-2-(3-(1-(2-hydroxyethyl)-1H-pyrazol-4-yl)-6,7-dihydro-5H-pyrrolo[2,1-c][1,2,4]triazol-6-yl)phenol] | 8.11
12 | Oc1ccc(Cl)c(Cl)c1[C@@H]1Cc2nnc(C3CNC3)n2C1 [Example 45, (S)-2-(3-(Azetidin-3-yl)-6,7-dihydro-5H-pyrrolo[2,1-c][1,2,4]triazol-6-yl)-3,4-dichlorophenol] | 1.5
13 | Oc1ccc(Cl)c(Cl)c1[C@@H]1Cc2nnc(-c3cn[nH]c3)n2C1 [Example 46, (S)-2-(3-(1H-Pyrazol-4-yl)-6,7-dihydro-5H-pyrrolo[2,1-c][1,2,4]triazol-6-yl)-3,4-dichlorophenol] | 5.12
14 | Oc1ccc(Cl)c(Cl)c1[C@@H]1Cc2nnc([C@H]3CCNC3)n2C1 [Example 47, 3,4-Dichloro-2-((S)-3-((S)-pyrrolidin-3-yl)-6,7-dihydro-5H-pyrrolo[2,1-c][1,2,4]triazol-6-yl)phenol] | 1.3
15 | Oc1ccc(Cl)c(Cl)c1[C@@H]1Cc2nnc([C@@H]3CCNC3)n2C1 [Example 48, 3,4-dichloro-2-((S)-3-((R)-pyrrolidin-3-yl)-6,7-dihydro-5H-pyrrolo[2,1-c][1,2,4]triazol-6-yl)phenol] | 8.49
16 | CN1CCC(c2nnc3n2C[C@H](c2c(O)ccc(Cl)c2Cl)C3)C1 (stereo partly drawn) [Example 49, 3,4-Dichloro-2-((6S)-3-(1-methylpyrrolidin-3-yl)-6,7-dihydro-5H-pyrrolo[2,1-c][1,2,4]triazol-6-yl)phenol] | 3.64

Row | SMILES | IC50 [nM]
17 | COC(=O)N1CC[C@@H](c2nnc3n2C[C@H](c2c(O)ccc(Cl)c2Cl)C3)C1 [Example 51, methyl (R)-3-((S)-6-(2,3-dichloro-6-hydroxyphenyl)-6,7-dihydro-5H-pyrrolo[2,1-c][1,2,4]triazol-3-yl)pyrrolidine-1-carboxylate] | 7.24
18 | O=C1C[C@@H](c2nnc3n2C[C@H](c2c(O)ccc(Cl)c2Cl)C3)CN1 [Example 52, (R)-4-((S)-6-(2.3-Dichloro-6-hydroxyphenyl)-6,7-dihydro-5H-pyrrolo[2,1-c][1,2,4]triazol-3-yl)pyrrolidin-2-one] | 14
19 | Oc1ccc(Cl)c(Cl)c1[C@@H]1Cc2nnc([C@H]3CCOC3)n2C1 [Example 55, 3,4-dichloro-2-((S)-3-((R)-tetrahydrofuran-3-yl)-6,7-dihydro-5H-pyrrolo[2,1-c][1,2,4]triazol-6-yl)phenol] | 12
20 | Oc1ccc(Cl)c(Cl)c1[C@@H]1Cc2nnc([C@@H]3CCCNC3)n2C1 [Example 59, 3,4-dichloro-2-((S)-3-((R)-piperidin-3-yl)-6,7-dihydro-5H-pyrrolo[2,1-c][1,2,4]triazol-6-yl)phenol] | 2.56
21 | Oc1ccc(Cl)c(Cl)c1[C@@H]1Cc2nnc([C@H]3C[C@H]4CC[C@@H]3O4)n2C1 [Example 60, 2-((S)-3-((1S,2R,4R)-7-Oxabicyclo[2.2.1]heptan-2-yl)-6,7-dihydro-5H-pyrrolo[2,1-c][1,2,4]triazol-6-yl)-3,4-dichlorophenol] | 27.6
22 | Oc1ccc(Cl)c(Cl)c1[C@@H]1Cc2nnc([C@H]3C[C@@H]4CC[C@H]3O4)n2C1 [Example 62, 2-((S)-3-((1R,2R,4S)-7-Oxabicyclo[2.2.1]heptan-2-yl)-6,7-dihydro-5H-pyrrolo[2,1-c][1,2,4]triazol-6-yl)-3,4-dichlorophenol] | 16.4
23 | C[C@]1(c2nnc3n2C[C@H](c2c(O)ccc(Cl)c2Cl)C3)CCOC1 [Example 65, 3,4-dichloro-2-((S)-3-((R)-3-methyltetrahydrofuran-3-yl)-6,7-dihydro-5H-pyrrolo[2,1-c][1,2,4]triazol-6-yl)phenol] | 51.7
24 | Oc1ccc(Cl)c(Cl)c1[C@@H]1Cc2nnc(C34COC(C3)C4)n2C1 [Example 66, (S)-2-(3-(2-Oxabicyclo[2.1.1]hexan-4-yl)-6,7-dihydro-5H-pyrrolo[2,1-c][1,2,4]triazol-6-yl)-3,4-dichlorophenol] | 33.3
25 | Oc1ccc(Cl)c(Cl)c1[C@@H]1Cc2nnc(C3CCCC3)n2C1 [Example 67, (S)-3,4-Dichloro-2-(3-cyclopentyl-6,7-dihydro-5H-pyrrolo[2,1-c][1,2,4]triazol-6-yl)phenol] | 10.2
26 | Oc1ccc(Cl)c(Cl)c1[C@@H]1Cc2nnc([C@@H]3CCCOC3)n2C1 [Example 68, 3,4-Dichloro-2-((S)-3-((S)-tetrahydro-2H-pyran-3-yl)-6,7-dihydro-5H-pyrrolo[2,1-c][1,2,4]triazol-6-yl)phenol] | 16
27 | Oc1ccc(Cl)c(Cl)c1[C@@H]1Cc2nnc([C@@]34COCC3C4)n2C1 (stereo partly drawn) [Example 72, 2-((6S)-3-((1S)-3-Oxabicyclo[3.1.0]hexan-1-yl)-6,7-dihydro-5H-pyrrolo[2,1-c][1,2,4]triazol-6-yl)-3,4-dichlorophenol] | 39.1
28 | Oc1ccc(Cl)c(Cl)c1[C@@H]1Cc2nnc([C@]34COCC3C4)n2C1 (stereo partly drawn) [Example 73, 2-((6S)-3-((1R)-3-oxabicyclo[3.1.0]hexan-1-yl)-6,7-dihydro-5H-pyrrolo[2,1-c][1,2,4]triazol-6-yl)-3,4-dichlorophenol] | 24.7
29 | COc1cccc(-c2nnc3n2C[C@H](c2c(O)ccc(Cl)c2Cl)C3)c1 [Example 76, (S)-3,4-Dichloro-2-(3-(3-methoxyphenyl)-6,7-dihydro-5H-pyrrolo[2,1-c][1,2,4]triazol-6-yl)phenol] | 27.9
30 | COc1cccc(-c2nnc3n2C[C@@H](c2c(O)ccc(Cl)c2Cl)C3)c1 [Example 77, (R)-3,4-dichloro-2-(3-(3-methoxyphenyl)-6,7-dihydro-5H-pyrrolo[2,1-c][1,2,4]triazol-6-yl)phenol] | 45.2
31 | Oc1ccc(Cl)c(Cl)c1[C@@H]1Cc2nnc(C3CCN(C4CCCCC4)CC3)n2C1 [Example 78, (S)-3,4-Dichloro-2-(3-(1-cyclohexylpiperidin-4-yl)-6,7-dihydro-5H-pyrrolo[2,1-c][1,2,4]triazol-6-yl)phenol] | 12.6
32 | CC(C)N1CC[C@@H](c2nnc3n2C[C@H](c2c(O)ccc(Cl)c2Cl)C3)C1 [Example 80, 3,4-Dichloro-2-((S)-3-((R)-1-isopropylpyrrolidin-3-yl)-6,7-dihydro-5H-pyrrolo[2,1-c][1,2,4]triazol-6-yl)phenol] | 2.14
